Literature values in US20060127506A1, “Compositions of S-adenosyl-L-methionine” (priority 2004, published 2006).

Columns and labels:
[1] = system: S-adenosyl-L-methionine-dependent methyltransferases
beta-adrenergic = conditions: L-form vs D-enantiomer
[2] = oral; alcoholic liver cirrhosis; compared with placebo treated group
[3] = optical purity of 97-100% (Berna et al, US 20020010147)
[4] = system: nucleolar 2-O-methyltransferase; conditions: (S,S) vs (R,S) diastereomer

C[S@@+](CC[C@@H](N)C(=O)O)C[C@H]1O[C@@H](n2cnc3c(N)ncnc32)[C@H](O)[C@@H]1O [(R,S)-S-adenosyl-L-methionine]
inhibition of enzyme-catalyzed transmethylation reactions [1]: potent inhibitor | extent of binding relative to (S,S)-S-adenosyl-L-methionine (Other methyltransferases): to the same extent

CC(C)NCC(O)COc1cccc2ccccc12 (stereo not drawn) [propranolol]
potency of L-form relative to D-enantiomer (beta-adrenergic): 100 times

C[S+](CC[C@H](N)C(=O)[O-])C[C@H]1O[C@@H](n2cnc3c(N)ncnc32)[C@H](O)[C@@H]1O (stereo partly drawn) [S-adenosyl-L-methionine]
overall mortality and/or progression to liver transplant [2]: 12%

C[S@@+](CC[C@H](N)C(=O)O)C[C@H]1O[C@@H](n2cnc3c(N)ncnc32)[C@H](O)[C@@H]1O [(S,S)-S-adenosyl-L-methionine]
time for which optical purity is sustained before epimerization begins again [3]: ≤ 4 months | tightness of enzyme binding relative to (R,S)-S-adenosyl-L-methionine [4]: 10 fold
